The results in this text go back to US9073880B2, “2-(2-phenylethenyl) 1,3-benzodiazepine derivatives useful for the treatment of cancer” (Yissum Research Development Company of the Hebrew …, priority 2010, dated 2015).

For this assay, the system named is human melanoma A375 cells. The assay is described as follows: Cell proliferation, A375 (Example 4). Particulars: A-375, compound in 2-hydroxypropyl-β-cyclodextrin. The class given is cell-based. The protocol: Human ovary cancer A2780 cells lines were seeded at a density of 5000 cells/well, human melanoma A375 cells were plated at a density of 2,500 cells/well, human colon carcinoma HCT15 cells were plated at a density of 3,000 cells/well, human prostate carcinoma PC3 cells were plated at a density of 1,500 cells/well, human breast carcinoma MCF7 cells were plated at a density of 5,000 cells/well, human breast carcinoma MDA MB 468 cells were plated at a density of 6,000 cells/well, human myeloma U266, RPMI8226 and CAG cells were plated at a density of 10,000 cells/well. All cells were plated in 96-well plates in 90 μl growth medium containing 10% FCS, 100 units/ml penicillin and 100 μg/ml streptomycin. Compound 3 was added a day later in […] of 1% DMSO in DDW to obtain final concentrations of 0, 0.1, 0.3, 1, 3, and 10 μM. The final concentration of DMSO (0.1% DMSO) was kept constant in all samples. […] The optical density values were read at 630 nm in ELISA plate reader. Non-adhered cells were exposed to WST-1 reagent for 5 hours following 72 hours treatment with the inhibitors, and optical density values were read at 630 nm in ELISA plate reader. The data was analyzed in Microsoft Excel, using the vehicle control as 100% proliferation. […]

Turning to `O=c1c(O)cc2cnc(/C=C/c3ccc(O)c(O)c3Br)sc-2c1O` [Compound 5], the midpoint of inhibition, the IC50, lay at 400 nM.

`O=c1c(O)cc2cnc(/C=C/c3cc(O)c(O)c(Br)c3)sc-2c1O` [Compound 3] had an IC50 of 500 nM.

Usually IC50 stands for the concentration that gives 50% inhibition. A low value points to higher potency.
